Measured values from patent US12605407B2, “Methods to induce terminal differentiation in stem cells by interfering with DNA replication, methods of inducing pancreatic differentiation, and differentiated cells obtained thereof” (priority 2018, dated 2026).

Assays:
STZ-treated mice = assay: Protection from diabetes after ablation of mouse beta cells by streptozotocin, glucose tolerance test; format: in vivo
Protocol: The human C-peptide levels in mouse serum were measured every two weeks in the fed state. Intraperitoneal glucose tolerance test was performed by fasting overnight and injecting 2 g/kg D-glucose solution at 2 weeks after mouse beta cells were ablated with one high dose (150 mg/kg) Streptozocin (Cat. No. S0130-1G, Sigma-Aldrich). Blood was collected in heparin-coated tube at fed state, fasting and 30 min after glucose injection. Plasma were collected by centrifuging tubes at 2000 g for 15 minutes at 4° C. The supernatants were collected for C-peptide and insulin detection with Mercodia M-Plex™ ARRAY Chemiluminescent Mercodia Beta Kit. Blood glucose levels was measured at fed state, fasting and every 30 minutes after glucose injection for 2 hours.
The ability of APH treated cells to protect mice from diabetes was determined after eliminating endogenous mouse beta cells by streptozotocin (STZ). STZ ablates mouse beta cells but is not toxic to human beta cells at the concentrations used. After STZ treatment, the blood glucose levels were monitored and grafted beta cells were challenged with high glucose to check their function. The blood glucose levels remained in the normal range over time in 3 out of 4 mice (FIG. 7E). Mice were tolerant to glucose and normalized blood glucose levels within 15 min of glucose injection (FIG. 7F). The secretion of human C-peptide and insulin decreased after fasting and increased after glucose injection (FIG. 7G).

sc-beta cell clusters = assay: Static glucose stimulated C-peptide secretion; format: cell-based, human; conditions: 2 mM versus 20 mM glucose
Protocol: Krebs Ringer buffer (KRB) was prepared by addition of 129 mM NaCl, 4.8 mM KCl, 2.5 mM CaCl2), 1.2 mM MgSO4, 1 mM Na2HPO4, 1.2 mM KH2PO4, 5 mM NaHCO3, 10 mM HEPES and 0.1% BSA in deionized water and was sterilized using 0.22 μm filter. 2 mM and 20 mM glucose solution were prepared in KRB for low glucose and high glucose challenge of sc-beta cell clusters. 10-20 sc-beta cell clusters (about 5×10^5 cells) were collected from control and cells treated with cell cycle inhibitors including APH and treated conditions and pre-incubated in 500 μl low glucose solution for 1 hour. Clusters were then washed once with low glucose solution and sequentially incubated in 200 μl of low glucose and then high glucose solution for 30 minutes. 130 μl supernatant of each condition were collected. Supernatants containing secreted C-peptide stimulated by low and high glucose were processed using Mercodia Ultrasensitive Human C-peptide ELISA kit. Fold changes of C-peptide secretion before and after glucose stimulation were calculated.
Insulin positive cells were isolated based on GFP expression and the expressions of genes related to the maturation of beta cells including PDX1, NKX6.1, MAFA and insulin were evaluated (FIG. 6A). […] In addition, the C-peptide secretion was increased 2-6-fold, with an average of 3-fold, in response to high levels of glucose (FIG. 6D).

[1] = test system: pancreatic progenitor cells; assay: TUNEL staining for apoptosis and absolute cell numbers; format: cell-based
From the text: To determine whether the increased percentage of beta cells was due to cell death of proliferating progenitors or due to increased differentiation from pancreatic progenitor cells, absolute cell numbers and cell death were quantified. Cells at day 17 and day 27 with and without APH treatment were stained for TUNEL. […] Therefore, the increased percentage of C-peptide positive cells was due to the increased differentiation, not the elimination of non-C-peptide positive cells from day 15 to day 20. After day 20, APH maintained the purity of beta cell clusters by preventing the growth of non-beta cells.

[2] = test system: iPSC lines 1018E and 1023A; assay: Beta cell differentiation in iPSC lines with different differentiation potentials, C-peptide positive cells; format: cell-based, human
Protocol: Human pluripotent stem cells were cultured and maintained in feeder-free plates with stemflex medium as described. Three cell lines were involved in this study as shown in Table 2: MEL1 is human embryonic stem cell line; 1023A is a human induced pluripotent stem cell line reprogrammed from a skin fibroblast biopsied of a healthy control; and 1018E is a human induced pluripotent stem cell line reprogrammed from a skin fibroblast biopsied from a type 1 diabetes patient. All human subjects research was reviewed and approved by the Columbia University Institutional Review Board, and the Columbia University Embryonic Stem Cell Committee.
Beta cells differentiated from human pluripotent stem cell lines as described in Example 2 (Sui et al., 2018b). Indicated compounds that function as cell cycle inhibitors were added individually from day 15 to day 27 with concentration listed below:
The beta cell clusters were dissociated using TrypLE™ Express into single cells. Cells were fixed with 4% PFA for 10 min and followed by permeabilization at −20° C. with cold methanol for 10 min. […] The cells were filtered with BD Falcon 12×75 mm tube with cell strainer cap (Cat. No. 352235, BD) and subsequently analyzed by flow cytometer. Data were analyzed using Flowjo software. […]

Compound: C[C@@]1(CO)[C@H](O)CC[C@@]2(C)[C@H]1CC[C@H]1C[C@@H]3C[C@@]12CC[C@]3(O)CO [APH, Aphidicolin]
- mice whose blood glucose levels remained in the normal range over time (STZ-treated mice; after STZ treatment, mice transplanted with APH treated cells): 3 out of 4
- secretion of human C-peptide and insulin (STZ-treated mice; after fasting): decreased
- secretion of human C-peptide and insulin (STZ-treated mice; after glucose injection): increased
- time to normalized blood glucose levels after glucose injection (STZ-treated mice; glucose tolerance test, STZ-treated mice): ≤ 15 min
- C-peptide secretion increase in response to high levels of glucose (sc-beta cell clusters): 2-6 fold
- C-peptide secretion increase in response to high levels of glucose, average (sc-beta cell clusters): 3 fold
- cell apoptosis, percentage of TUNEL positive cells ([1]; day 17 and day 27, early and late stage of APH treatment): No significant increase
- number of total cells compared to control group ([1]; day 20): comparable
- percentage of C-peptide positive cells compared to control ([1]; day 20): significantly increased
- percentage of C-peptide positive cells ([2]; both cell lines 1018E and 1023A, after APH treatment versus control): significantly upregulated
- average percentage of C-peptide positive cells ([2]; cell line 1018E (differentiates poorly), after APH treatment): 38%
